{"source": "patent US11059786B2", "about": "“Aminopyridine compounds and methods for the preparation and use thereof” (Cortexyme, Inc., priority 2017, dated 2021)", "data": [{"target": "T1, RgpB (Porphyromonas gingivalis, UniProt P95493)", "T1 construct": "0.02 nM RgpB, isolated from culture of Porphyromonas gingivalis; endogenous in cells", "T1 sequence (P95493 230-664)": "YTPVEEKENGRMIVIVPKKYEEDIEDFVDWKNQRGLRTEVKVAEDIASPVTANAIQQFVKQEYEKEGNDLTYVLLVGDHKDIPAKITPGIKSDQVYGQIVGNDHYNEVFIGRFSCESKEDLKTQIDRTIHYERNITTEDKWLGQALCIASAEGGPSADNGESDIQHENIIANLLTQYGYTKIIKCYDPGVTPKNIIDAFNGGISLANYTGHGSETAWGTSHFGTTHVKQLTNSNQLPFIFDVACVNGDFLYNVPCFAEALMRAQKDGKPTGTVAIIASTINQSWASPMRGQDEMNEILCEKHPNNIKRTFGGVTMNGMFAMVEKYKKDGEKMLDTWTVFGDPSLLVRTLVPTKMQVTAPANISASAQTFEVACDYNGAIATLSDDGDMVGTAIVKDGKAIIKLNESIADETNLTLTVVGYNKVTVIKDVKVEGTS", "assay": "RgpB inhibition, fluorogenic assay", "format": "biochemical", "conditions": "Activity (RgpB IC50), 0.02 nM RgpB, 10 μM Boc-Phe-Ser-Arg-MCA, 90 minutes, 37° C., pH=7.5", "description": "(§1) The capacities of compounds of the present invention to inhibit the activity of RgpB were measured in a fluorogenic assay similar to those described in Barret Biochemical Journal. 1980, 187(3), 909. The specific assay conditions were as follows. Buffer: pH=7.5, 100 mM Tris-HCl, 75 mM NaCl, 2.5 mM CaCl2, 10 mM cysteine, 1% DMSO after all additions. Protein: 0.02 nM RgpB, isolated from culture of Porphyromonas gingivalis, as described in Pike et al. J. Biol. Chem. 1994, 269(1), 406, and Potempa and Nguyen. Current Protocols in Protein Scienc. 2007, 21.20.1-21.20.27. Fluorogenic substrate: 10 μM Boc-Phe-Ser-Arg-MCA. Time=90 minutes. Temperature=37° C. Each compound: 10 concentrations, starting at either 100 μM or 100 nM, with lower concentrations generated by serial 3-fold dilutions. By testing a range of concentrations for each compound, the concentration required to inhibit the activity of RgpB by 50% (the “IC50”) was determined.", "units": {"IC50": "nM"}, "values": [{"compound": "Nc1cc(CC(NC(=O)C2CCCC2)C(=O)COc2c(F)cccc2F)ccn1", "note": "(stereo not shown) [Compound 55, N-(1-(2-aminopyridin-4-yl)-4-(2,6-difluorophenoxy)-3-oxobutan-2-yl)cyclopentanecarboxamide]", "IC50": "< 100"}, {"compound": "COC(C)(C)C(=O)NC(Cc1ccc(N)nc1)C(=O)COc1c(F)c(F)cc(F)c1F", "note": "(stereo not shown) [Compound 60, N-(1-(6-aminopyridin-3-yl)-3-oxo-4-(2,3,5,6-tetrafluorophenoxy)butan-2-yl)-2-methoxy-2-methylpropanamide]", "IC50": "< 100"}, {"compound": "N#CN1Cc2ccccc2C1COc1ccnc(N)c1", "note": "(stereo not shown) [Compound 25, 1-(((2-aminopyridin-4-yl)oxy)methyl)isoindoline-2-carbonitrile]", "IC50": "100 to 1000"}, {"compound": "CC(c1ccc2c(N)nccc2c1)N(C)C#N", "note": "(stereo not shown) [Compound 46, N-(1-(1-aminoisoquinolin-6-yl)ethyl)-N-methylcyanamide]", "IC50": "1000 to 10000"}, {"compound": "N#CN1CCCC1c1ccc2c(N)nccc2c1", "note": "(stereo not shown) [Compound 45, 2-(1-aminoisoquinolin-6-yl)pyrrolidine-1-carbonitrile]", "IC50": "< 100"}, {"compound": "CNc1nccc2cc([C@H]3CCCN3C#N)ccc12", "note": "[Compound 51b, (R)-2-(1-(methylamino)isoquinolin-6-yl)pyrrolidine-1-carbonitrile]", "IC50": "10000 to 100000"}, {"compound": "N#CN(CCOc1ccnc(N)c1)C1CCCCC1", "note": "[Compound 40, N-(2-((2-aminopyridin-4-yl)oxy)ethyl)-N-cyclohexylcyanamide]", "IC50": "10000 to 100000"}, {"compound": "COC(C)(C)C(=O)NC(Cc1ccc(N)nc1)C(=O)COc1ccon1", "note": "(stereo not shown) [Compound 59, N-(1-(6-aminopyridin-3-yl)-4-(isoxazol-3-yloxy)-3-oxobutan-2-yl)-2-methoxy-2-methylpropanamide]", "IC50": "100 to 1000"}, {"compound": "N#CN1CCCCC1c1ccc2c(N)nccc2c1", "note": "(stereo not shown) [Compound 37, 2-(1-aminoisoquinolin-6-yl)piperidine-1-carbonitrile]", "IC50": "100 to 1000"}, {"compound": "N#CN1CCCC1CCCOc1ccnc(N)c1", "note": "(stereo not shown) [Compound 18, 2-(3-((2-aminopyridin-4-yl)oxy)propyl)pyrrolidine-1-carbonitrile]", "IC50": "10000 to 100000"}, {"compound": "N#CN1CCC[C@H]1c1ccc2c(N)nccc2c1", "note": "[Compound 44, (S)-2-(1-aminoisoquinolin-6-yl)pyrrolidine-1-carbonitrile]", "IC50": "100 to 1000"}, {"compound": "CNc1nccc2cc([C@@H]3CCCN3C#N)ccc12", "note": "[Compound 51a, (S)-2-(1-(methylamino)isoquinolin-6-yl)pyrrolidine-1-carbonitrile]", "IC50": "10000 to 100000"}, {"compound": "N#CN1C[C@@H](O)C[C@H]1c1ccc2c(N)nccc2c1", "note": "[Compound 50a, (2S,4S)-2-(1-aminoisoquinolin-6-yl)-4-hydroxypyrrolidine-1-carbonitrile]", "IC50": "< 100"}, {"compound": "N#CN1CCC[C@@H]1COc1ccnc(N)c1", "note": "[Compound 20, (R)-2-(((2-aminopyridin-4-yl)oxy)methyl)pyrrolidine-1-carbonitrile]", "IC50": "1000 to 10000"}, {"compound": "N#CN1C[C@H](O)C[C@@H]1c1ccc2c(N)nccc2c1", "note": "[Compound 49, (2R,4R)-2-(1-aminoisoquinolin-6-yl)-4-hydroxypyrrolidine-1-carbonitrile]", "IC50": "< 100"}, {"compound": "N#CN1CCC[C@H]1COc1cc(N)ncc1Cl", "note": "[Compound 41, (S)-2-(((2-amino-5-chloropyridin-4-yl)oxy)methyl)pyrrolidine-1-carbonitrile]", "IC50": "10000 to 100000"}, {"compound": "Nc1ccc(CC(NC(=O)C2CCCC2)C(=O)COc2c(F)c(F)cc(F)c2F)cn1", "note": "(stereo not shown) [Compound 53, N-(1-(6-aminopyridin-3-yl)-3-oxo-4-(2,3,5,6-tetrafluorophenoxy)butan-2-yl)cyclopentanecarboxamide]", "IC50": "< 100"}, {"compound": "N#CN1CCCC1COc1ccnc(N)c1", "note": "(stereo not shown) [Compound 3, 2-(((2-aminopyridin-4-yl)oxy)methyl)pyrrolidine-1-carbonitrile]", "IC50": "100 to 1000"}, {"compound": "COC(C)(C)C(=O)NC(Cc1ccc(N)nc1)C(=O)COc1c(F)cccc1F", "note": "(stereo not shown) [Compound 58, N-(1-(6-aminopyridin-3-yl)-4-(2,6-difluorophenoxy)-3-oxobutan-2-yl)-2-methoxy-2-methylpropanamide]", "IC50": "100 to 1000"}, {"compound": "Nc1ccc(CCC(NC(=O)C2CCCC2)C(=O)COc2ccon2)cn1", "note": "(stereo not shown) [Compound 74, N-(5-(6-aminopyridin-3-yl)-1-(isoxazol-3-yloxy)-2-oxopentan-3-yl)cyclopentanecarboxamide]", "IC50": "< 100"}, {"compound": "CC(C)N(C#N)CCOc1ccnc(N)c1", "note": "[Compound 39, N-(2-((2-aminopyridin-4-yl)oxy)ethyl)-N-isopropylcyanamide]", "IC50": "10000 to 100000"}, {"compound": "CC(CN(C)C#N)Oc1ccnc(N)c1", "note": "(stereo not shown) [Compound 15, N-(2-((2-aminopyridin-4-yl)oxy)propyl)-N-methylcyanamide]", "IC50": "100 to 1000"}, {"compound": "N#CN1CCC[C@H]1COc1ccnc(N)c1Cl", "note": "[Compound 42, (S)-2-(((2-amino-3-chloropyridin-4-yl)oxy)methyl)pyrrolidine-1-carbonitrile]", "IC50": "10000 to 100000"}, {"compound": "CN(C)c1cc(OCC2CCCN2C#N)ccn1", "note": "(stereo not shown) [Compound 23, 2-(((2-(dimethylamino)pyridin-4-yl)oxy)methyl)pyrrolidine-1-carbonitrile]", "IC50": "10000 to 100000"}, {"compound": "N#CN1CCCC1CCOc1ccnc(N)c1", "note": "(stereo not shown) [Compound 16, 2-(2-((2-aminopyridin-4-yl)oxy)ethyl)pyrrolidine-1-carbonitrile]", "IC50": "10000 to 100000"}, {"compound": "N#CN1CCC(COc2ccnc(N)c2)C1", "note": "(stereo not shown) [Compound 47, 3-(((2-aminopyridin-4-yl)oxy)methyl)pyrrolidine-1-carbonitrile]", "IC50": "1000 to 10000"}, {"compound": "N#CN1CCC[C@H]1CSc1ccnc(N)c1", "note": "[Compound 28, (S)-2-(((2-aminopyridin-4-yl)thio)methyl)pyrrolidine-1-carbonitrile]", "IC50": "1000 to 10000"}, {"compound": "N#CN1CCC[C@H]1COc1cc(N)ncc1Br", "note": "[Compound 30, (S)-2-(((2-amino-5-bromopyridin-4-yl)oxy)methyl)pyrrolidine-1-carbonitrile]", "IC50": "10000 to 100000"}, {"compound": "N#CN1CCC1COc1ccnc(N)c1", "note": "(stereo not shown) [Compound 11, 2-(((2-aminopyridin-4-yl)oxy)methyl)azetidine-1-carbonitrile]", "IC50": "> 100000"}, {"compound": "Nc1ccc(CC(NC(=O)C2CCCC2)C(=O)COc2c(F)cccc2F)cn1", "note": "(stereo not shown) [Compound 67, N-(1-(6-aminopyridin-3-yl)-4-(2,6-difluorophenoxy)-3-oxobutan-2-yl)cyclopentanecarboxamide]", "IC50": "< 100"}, {"compound": "N#CN1CCC(CCOc2ccnc(N)c2)C1", "note": "(stereo not shown) [Compound 17, 3-(2-((2-aminopyridin-4-yl)oxy)ethyl)pyrrolidine-1-carbonitrile]", "IC50": "1000 to 10000"}]}, {"target": "T1, RgpB", "assay": "RgpB inhibition, fluorogenic assay", "format": "biochemical", "conditions": "Activity (RgpB IC50), compound not tested above 1 μM; 0.02 nM RgpB, 10 μM Boc-Phe-Ser-Arg-MCA, 90 minutes, 37° C.", "description": "as §1", "units": {"IC50": "nM"}, "values": [{"compound": "CN(C)c1nccc2cc([C@H]3CCCN3C#N)ccc12", "note": "[Compound 52b, (R)-2-(1-(dimethylamino)isoquinolin-6-yl)pyrrolidine-1-carbonitrile]", "IC50": "> 1000"}, {"compound": "COC(C)(C)C(=O)NC(Cc1ccnc(N)c1)C(=O)COC(C(F)(F)F)C(F)(F)F", "note": "(stereo not shown) [Compound 73, N-(1-(2-aminopyridin-4-yl)-4-((1,1,1,3,3,3-hexafluoropropan-2-yl)oxy)-3-oxobutan-2-yl)-2-methoxy-2-methylpropanamide]", "IC50": "> 1000"}]}, {"system": "not given", "assay": "not given", "conditions": "in vivo, po; cited from earlier work", "values": [{"compound": "CN(NC(=O)CC[C@H](NC(=O)OCc1ccccc1)C(=O)N[C@@H](CCCCN)C(=O)C(=O)NCc1ccccc1)c1ccccc1", "note": "[Kyt-36]", "half-life": "increases the half-life"}]}]}
